Experimental data reported in article PMC3971408, “Inhibition of triosephosphate isomerase by phosphoenolpyruvate in the feedback-regulation of glycolysis” (Open Biology, 2014).

How the values were obtained:
[1] = target: T1, human triosephosphate isomerase (TPI) (Homo sapiens, UniProt P60174); assay: enzyme-coupled activity assay with PEP titration (IC50 […]); thermal shift ΔTm […]°C; assay type: biochemical
T1 construct: gene TPI1; 6x-histidine tagged wild-type human TPI

human TPIIle170Thr = target: T2, human TPIIle170Thr (Homo sapiens, UniProt P60174, I171T); assay: enzyme-coupled activity assay with PEP titration; thermal shift ΔTm […]°C; assay type: biochemical
T2 construct: gene TPI1; 6x-histidine tagged human TPI

human TPIIle170Val = target: T3, human TPIIle170Val (Homo sapiens, UniProt P60174, I171V); assay: as above; assay type: biochemical
T3 construct: gene TPI1; 6x-histidine tagged human TPI

[2] = target: T4, triosephosphate isomerase (TPI) (Oryctolagus cuniculus, UniProt P00939); assay: co-crystal structure at […] Å; assay type: binding
T4 construct: gene TPI1; Native rabbit muscle TPI (Sigma); homodimer, 246 of 250 amino acids modelled
T4 sequence (P00939 2-249): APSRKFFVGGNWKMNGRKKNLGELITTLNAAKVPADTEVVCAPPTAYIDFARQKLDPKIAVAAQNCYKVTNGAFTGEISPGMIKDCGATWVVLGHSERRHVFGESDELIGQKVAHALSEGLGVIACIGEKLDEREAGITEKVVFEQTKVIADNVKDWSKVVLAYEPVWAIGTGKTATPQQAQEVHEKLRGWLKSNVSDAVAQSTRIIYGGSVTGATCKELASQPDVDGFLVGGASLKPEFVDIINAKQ

T1 sequence (P60174 2-249): as the sequence (P00939 2-249) above, with K19Q, N20S, T26G, S118A counted along it
T3 sequence (P60174 2-249 I171V): as the sequence (P00939 2-249) above, with K19Q, N20S, T26G, S118A, I170V counted along it
T2 sequence (P60174 2-249 I171T): as the sequence (P00939 2-249) above, with K19Q, N20S, T26G, S118A, I170T counted along it

Ki [1]: 230 µM | IC50 (human TPIIle170Thr): 1540 µM | IC50 (human TPIIle170Val): 1930 µM
Compound: C=C(OP(=O)(O)O)C(=O)O [PEP, phosphoenolpyruvate]
co-crystal structure at 1.55 Å [2]: The electron density map gave a clearly defined and unambiguous shape for PEP bound to the active sites
